Measured values as given in patent JP2013032353A, “ロキソプロフェン含有医薬組成物” (priority 2011, dated 2013).

Columns and labels:
[1] = Interaction study: storage of loxoprofen sodium hydrate/drug mixtures and of the single drugs at 60 °C (Test Examples 1, 4, 7, 10, 13, 16, 18, 20, 21, 23, 25, 27); assay type: physicochemical; conditions: stored 1 week in glass bottle (3K), evaluated at start, 1 day, 3 days (2 days in Test Examples 10 and 16) and 1 week
[2] = tested on: gastric mucosal injury caused by loxoprofen [ロキソプロフェンに起因する胃粘膜障害]; assay: Suppression of loxoprofen-induced gastrointestinal injury in rats (Test Examples 3, 6, 9, 12, 15, 24); assay type: in vivo, rat (Wistar); conditions: rat, 1 h before loxoprofen sodium hydrate 120 mg/kg p.o., result in words

| Molecule | state in the glass bottle on storage [1] | also measured |
| --- | --- | --- |
| C[C@@H]([C@H](O)c1ccccc1)N(C)C.Cl [dl−メチルエフェドリン塩酸塩] | 変化は生じなかった | reduction of loxoprofen-induced gastric mucosal injury ([2]; oral, 20, 60, 180 mg/5 mL/kg): 軽減した |
| Nc1c(Br)cc(Br)cc1CN[C@H]1CC[C@H](O)CC1 [アンブロキソール塩酸塩] | 変化は生じなかった |  |
| CN(C)CCOC(c1ccc(Cl)cc1)c1ccccn1 (centres unmarked) [カルビノキサミンマレイン酸塩] | 変化は生じなかった | reduction of loxoprofen-induced gastric mucosal injury ([2]; oral, 0.75, 75 mg/5 mL/kg): 軽減した |
| CN1CCC[C@@H]1CCO[C@](C)(c1ccccc1)c1ccc(Cl)cc1 [クレマスチンフマル酸塩] | 変化は生じなかった | reduction of loxoprofen-induced gastric mucosal injury ([2]; oral, 1 mg/5 mL/kg): 軽減した |
| CN(C)CC[C@@H](c1ccc(Cl)cc1)c1ccccn1.O=C(O)/C=C\C(=O)O [クロルフェニラミンマレイン酸塩, d−クロルフェニラミンマレイン酸塩] | 変化は生じなかった | reduction of loxoprofen-induced gastric mucosal injury ([2]; oral, 5, 40 mg/5 mL/kg): 軽減した |
| COc1ccccc1OCC(O)CO (centres unmarked) [グアイフェネシン] | 変化は生じなかった |  |
| COc1ccc2c3c1O[C@H]1[C@@H](O)CC[C@H]4[C@@H](C2)N(C)CC[C@@]341 [ジヒドロコデインリン酸塩] |  | reduction of loxoprofen-induced gastric mucosal injury ([2]; oral, 8, 24, 72 mg/5 mL/kg, n=6): 軽減した |
| CN1CCC(OC(c2ccccc2)c2ccccc2)CC1 [ジフェニルピラリン塩酸塩] | 変化は生じなかった | reduction of loxoprofen-induced gastric mucosal injury ([2]; oral, 3, 10 mg/5 mL/kg): 軽減した |
| COc1ccc2c(c1)[C@]13CCCC[C@@H]1[C@H](C2)N(C)CC3 [デキストロメトルファン臭化水素酸塩水和物] | 変化は生じなかった |  |
| CN(Cc1cc(Br)cc(Br)c1N)C1CCCCC1 [ブロムヘキシン塩酸塩] | 変化は生じなかった |  |
| CC(C(=O)[O-])c1ccc(CC2CCCC2=O)cc1.O.O.[Na+] (centres unmarked) [ロキソプロフェンナトリウム水和物, Monosodium 2-[4-[(2-oxocyclopentyl)methyl]phenyl]propanoate dihydrate] | 変化は生じなかった |  |
| リゾチーム塩酸塩: リゾチーム塩酸塩 (lysozyme hydrochloride) | 変化は生じなかった |  |
